As a reminder, the melting point is the temperature of the solid-liquid transition.

Data on 12 molecules can be found in patent US20170050957A1, “4-AMINO-6-(HETEROCYCLIC)PICOLINATES AND 6-AMINO-2-(HETEROCYCLIC)PYRIMIDINE-4-CARBOXYLATES AND THEIR USE AS HERBICIDES” (Dow AgroSciences LLC, priority 2013, published 2017).

Each structure is given as a SMILES string. Like-named read-outs stand apart in the source and are kept apart here.

Data set [1] concerns Key Broadleaf Weed and Crop Species. Description: Post-emergent Test II herbicidal activity (Table 15). Conditions: post-emergence, 336 h, 14 d; for pest or weed control at 35 g/ha: 35 g ai/ha. Format: in vivo. The protocol:
(§1) Post-emergent Test II: Seeds or nutlets of the desired test plant species were planted in Sun Gro Metro-Mix® 360 planting mixture, which typically has a pH of 6.0 to 6.8 and an organic matter content of about 30 percent, in plastic pots with a surface area of 64 square centimeters. When required to ensure good germination and healthy plants, a fungicide treatment and/or other chemical or physical treatment was applied. The plants were grown for 7-21 d in a greenhouse with an approximate 15 h photoperiod which was maintained at about 23-29° C. during the day and 22-28° C. during the night. Nutrients and water were added on a regular basis and supplemental lighting was provided with overhead metal halide 1000-Watt lamps as necessary. The plants were employed for testing when they reached the first or second true leaf stage.
(§2) A weighed amount, determined by the highest rate to be tested, of each test compound was placed in a 25 mL glass vial and was dissolved in 4 mL of a 97:3 v/v mixture of acetone and DMSO to obtain concentrated stock solutions. […] The concentrated stock solutions obtained were diluted with 20 mL of an aqueous mixture containing acetone, water, isopropyl alcohol, DMSO, Atplus 411F crop oil concentrate, and Triton® X-155 surfactant in a 48.5:39:10:1.5:1.0:0.02 v/v ratio to obtain spray solutions containing the highest application rates. Additional application rates were obtained by serial dilution of 12 mL of the high rate solution into a solution containing 2 mL of 97:3 v/v mixture of acetone and DMSO and 10 mL of an aqueous mixture containing acetone, water, isopropyl alcohol, DMSO, Atplus 411F crop oil concentrate, and Triton X-155 surfactant in a 48.5:39:10:1.5:1.0:0.02 v/v ratio to obtain 1/2×, 1/4×, 1/8× and 1/16× rates of the high rate. Compound requirements are based upon a 12 mL application volume at a rate of 187 liters per hectare (L/ha). Formulated compounds were applied to the plant material with an overhead Mandel track sprayer equipped with 8002E nozzles calibrated to deliver 187 L/ha over an application area of 0.503 square meters at a spray height of 18 inches (43 cm) above the average plant canopy height. Control plants were sprayed in the same manner with the solvent blank.
(§3) The treated plants and control plants were placed in a greenhouse as described above and watered by subirrigation to prevent wash-off of the test compounds. After 14 d, the condition of the test plants as compared with that of the untreated plants was determined visually and scored on a scale of 0 to 100 percent where 0 corresponds to no injury and 100 corresponds to complete kill.

The subject of data set [2] is Key Grass and Sedge Weeds as well as Grass Crops. Nature of the data set: Post-emergent Test II herbicidal activity (Table 16). Format: in vivo. The note with it: for pest or weed control at 35 g/ha / pest or weed control at 70 g/ha / pest or weed control at 140 g/ha: post-emergence, 336 h, 14 days after application; for Visual Growth Reduction (%) 14 Days After Application, ECHCG / Visual Growth Reduction (%) 14 Days After Application, SETFA / Visual Growth Reduction (%) 14 Days After Application, ZEAMX / Visual Growth Reduction (%) 14 Days After Application, ORYSA / Visual Growth Reduction (%) 14 Days After Application, TRZAS / Visual Growth Reduction (%) 14 Days After Application, CYPES: 14 d. The procedure: as §1, §2, §3

Turning to `COC(=O)c1nc(-c2cccc3[nH]ncc23)c(F)c(N)c1Cl` [Compound 4.12], the melting point lay within 212 to 215 °C.

`COC(=O)c1nc(-c2cccc3c(Br)csc23)c(F)c(N)c1Cl` [Compound 3.26, Methyl 4-amino-6-(3-bromobenzo[b]thiophen-7-yl)-3-chloro-5-fluoropicolinate] came in with a melting point of 181 to 184 °C.

On to `Cn1ncc2cc(-c3nc(C(=O)O)c(Cl)c(N)c3F)ccc21` [Compound 4.04], for which the melting point is 186 to 188 °C.

For `COC(=O)c1nc(-c2ccc3c(N(C)C)noc3c2)c(F)c(N)c1Cl` [Compound 8.01], the pest or weed control at 35 g/ha in data set [1] (Abutilon theophrasti, velvetleaf (Abutilon theophrasti), read-out: Visual Growth Reduction (%) 14 Days After Application, ABUTH) is 0 to 29%; in data set [1] (Amaranthus retroflexus, redroot pigweed (Amaranthus retroflexus), read-out: Visual Growth Reduction (%) 14 Days After Application, AMARE), 0 to 29%; in data set [1] (Brassica napus, oilseed rape, canola (Brassica napus), read-out: Visual Growth Reduction (%) 14 Days After Application, BRSNN), 0 to 29%; in data set [1] (Chenopodium album, lambsquarters (Chenopodium album), read-out: Visual Growth Reduction (%) 14 Days After Application, CHEAL), 0 to 29%; in data set [1] (Euphorbia heterophylla, wild poinsettia (Euphorbia heterophylla), read-out: Visual Growth Reduction (%) 14 Days After Application, EPHHL), 0 to 29%; in data set [1] (Helianthus annuus, sunflower (Helianthus annuus), read-out: Visual Growth Reduction (%) 14 Days After Application, HELAN) it was 0 to 29%. The pest or weed control at 35 g/ha in data set [2] (Cyperus esculentus, yellow nutsedge (Cyperus esculentus), 35 g ai/ha, read-out: Visual Growth Reduction (%) 14 Days After Application CYPES) is 0 to 29%; in data set [2] (Echinochloa crus-galli, barnyardgrass (Echinochloa crus-galli), 35 g ai/ha, read-out: Visual Growth Reduction (%) 14 Days After Application ECHCG), 0 to 29%; in data set [2] (Oryza sativa, rice (Oryza sativa), 35 g ai/ha, read-out: Visual Growth Reduction (%) 14 Days After Application ORYSA) it was 0 to 29%; in data set [2] (Setaria faberi, giant foxtail (Setaria faberi), 35 g ai/ha, read-out: Visual Growth Reduction (%) 14 Days After Application SETFA) it was 0 to 29%; in data set [2] (Triticum aestivum, wheat, spring (Triticum aestivum), 35 g ai/ha, read-out: Visual Growth Reduction (%) 14 Days After Application TRZAS), 0 to 29%; in data set [2] (Zea mays, maize, corn (Zea mays), 35 g ai/ha, read-out: Visual Growth Reduction (%) 14 Days After Application ZEAMX), 0 to 29%. For the same molecule, the pest or weed control at 70 g/ha in data set [1] (Brassica napus, oilseed rape, canola (Brassica napus), 70 g ai/ha, read-out: Visual Growth Reduction (%) 14 Days After Application, BRSNN) lay within 0 to 29%; in data set [2] (Cyperus esculentus, yellow nutsedge (Cyperus esculentus), 70 g ai/ha, read-out: Visual Growth Reduction (%) 14 Days After Application CYPES) it was 0 to 29%; in data set [2] (Echinochloa crus-galli, barnyardgrass (Echinochloa crus-galli), 70 g ai/ha, read-out: Visual Growth Reduction (%) 14 Days After Application ECHCG) it was 0 to 29%; in data set [2] (Oryza sativa, rice (Oryza sativa), 70 g ai/ha, read-out: Visual Growth Reduction (%) 14 Days After Application ORYSA), 0 to 29%; in data set [2] (Setaria faberi, giant foxtail (Setaria faberi), 70 g ai/ha, read-out: Visual Growth Reduction (%) 14 Days After Application SETFA), 0 to 29%; in data set [2] (Triticum aestivum, wheat, spring (Triticum aestivum), 70 g ai/ha, read-out: Visual Growth Reduction (%) 14 Days After Application TRZAS) it was 0 to 29%. Further, in data set [2] (Zea mays, maize, corn (Zea mays), 70 g ai/ha, read-out: Visual Growth Reduction (%) 14 Days After Application ZEAMX), the pest or weed control at 70 g/ha was 0 to 29%. The pest or weed control at 140 g/ha in data set [1] (Brassica napus, oilseed rape, canola (Brassica napus), 140 g ai/ha, read-out: Visual Growth Reduction (%) 14 Days After Application, BRSNN) was 0 to 29%; in data set [2] (Cyperus esculentus, yellow nutsedge (Cyperus esculentus), 140 g ai/ha, read-out: Visual Growth Reduction (%) 14 Days After Application CYPES), 0 to 29%; in data set [2] (Echinochloa crus-galli, barnyardgrass (Echinochloa crus-galli), 140 g ai/ha, read-out: Visual Growth Reduction (%) 14 Days After Application ECHCG) it was 0 to 29%; in data set [2] (Oryza sativa, rice (Oryza sativa), 140 g ai/ha, read-out: Visual Growth Reduction (%) 14 Days After Application ORYSA) it was 0 to 29%; in data set [2] (Setaria faberi, giant foxtail (Setaria faberi), 140 g ai/ha, read-out: Visual Growth Reduction (%) 14 Days After Application SETFA) it was 0 to 29%; in data set [2] (Triticum aestivum, wheat, spring (Triticum aestivum), 140 g ai/ha, read-out: Visual Growth Reduction (%) 14 Days After Application TRZAS) it was 0 to 29%. The pest or weed control at 140 g/ha in data set [2] (Zea mays, maize, corn (Zea mays), 140 g ai/ha, read-out: Visual Growth Reduction (%) 14 Days After Application ZEAMX) is 0 to 29%.

Regarding `Cn1cnc2ccc(-c3nc(C(=O)O)c(Cl)c(N)c3F)cc21` [Compound 7.03], the melting point is 230 to 235 °C (dec.).

For the molecule `Nc1c(Cl)c(C(=O)O)nc(-c2ccc3cc[nH]c3c2)c1Cl` [Compound 106], the “Visual Growth Reduction (%) 14 Days After Application, ECHCG” value in data set [2] (barnyardgrass (Echinochloa crus-galli), 35 g ai/ha) is “G (0-29)”; in data set [2] (barnyardgrass (Echinochloa crus-galli), 70 g ai/ha) it was “D (60-74)”; in data set [2] (barnyardgrass (Echinochloa crus-galli), 140 g ai/ha), “C (75-84)”. Also, the “Visual Growth Reduction (%) 14 Days After Application, SETFA” value in data set [2] (giant foxtail (Setaria faberi), 35 g ai/ha) is “G (0-29)”; in data set [2] (giant foxtail (Setaria faberi), 70 g ai/ha), “G (0-29)”; in data set [2] (giant foxtail (Setaria faberi), 140 g ai/ha) it was “G (0-29)”. For the same molecule, the “Visual Growth Reduction (%) 14 Days After Application, ZEAMX” value in data set [2] (maize, corn (Zea mays), 35 g ai/ha) is given as “G (0-29)”; in data set [2] (maize, corn (Zea mays), 70 g ai/ha), “G (0-29)”; in data set [2] (maize, corn (Zea mays), 140 g ai/ha), “G (0-29)”. Also, the “Visual Growth Reduction (%) 14 Days After Application, ORYSA” value in data set [2] (rice (Oryza sativa), 35 g ai/ha) was “G (0-29)”; in data set [2] (rice (Oryza sativa), 70 g ai/ha) it was “G (0-29)”; in data set [2] (rice (Oryza sativa), 140 g ai/ha) it was “G (0-29)”. Further, the “Visual Growth Reduction (%) 14 Days After Application, TRZAS” value in data set [2] (wheat, spring (Triticum aestivum), 35 g ai/ha) is listed as “G (0-29)”; in data set [2] (wheat, spring (Triticum aestivum), 70 g ai/ha) it was “G (0-29)”; in data set [2] (wheat, spring (Triticum aestivum), 140 g ai/ha), “G (0-29)”. The “Visual Growth Reduction (%) 14 Days After Application, CYPES” value in data set [2] (yellow nutsedge (Cyperus esculentus), 35 g ai/ha) is recorded as “G (0-29)”; in data set [2] (yellow nutsedge (Cyperus esculentus), 70 g ai/ha), “G (0-29)”; in data set [2] (yellow nutsedge (Cyperus esculentus), 140 g ai/ha), “G (0-29)”.

On to `COC(=O)c1nc(-c2cccc3c2ccn3C)c(F)c(N)c1Cl` [Compound 1.41], for which the melting point lay in the range of 167 to 169 °C.

On to `Cn1ccc2c(-c3nc(C(=O)O)c(Cl)c(N)c3F)cccc21` [Compound 1.42], for which the melting point fell in the range of 158 to 160 °C.

The molecule `Cn1ncc2c(-c3nc(C(=O)O)c(Cl)c(N)c3F)cccc21` [Compound 4.11] had a melting point of 173 to 175 °C.

Turning to `COC(=O)c1nc(-c2ccc3nc[nH]c3c2)c(F)c(N)c1Cl` [Compound 7.01], the melting point is 219 to 221 °C.

In the case of `C=Cc1c(C(=O)OC)nc(-c2ccc3cc[nH]c3c2F)c(F)c1N` [Compound 1.18, Methyl 4-amino-5-fluoro-6-(7-fluoro-1H-indol-6-yl)-3-vinylpicolinate], the melting point was 164 to 166 °C.

With `Cn1ccc2ccc(-c3nc(C(=O)O)c(Cl)c(N)c3F)cc21` [Compound 1.11], the melting point was 173 to 176 °C.
